Results on 20 compounds are retold here after US20220220106A1, “QUINOLINE COMPOUNDS AND PHARMACEUTICAL COMPOSITIONS AND USES THEREOF” (Academy of Military Medical Sciences, priority 2019, published 2022).

In general, IC50 refers to the point on the concentration scale where inhibition reaches its midpoint. One may read the melting point as the temperature, or range, at which the solid turns liquid.

Series [1] has as its system Enterovirus 71 (EV71) H strain. As to the kind of experiment: In vitro anti-EV71 activity (antiviral activity in RD cells, CellTiter-Glo). The format is cell-based. Particulars: for IC50: Enterovirus A, 96 h, EV71 H strain, RD cells, 4 days, CellTiter-Glo, read-out: IC50. As for the experimental part:
According to the mass and molecular weight of the compound to be tested, the compound to be tested was dissolved to 100 mM (mmol/L) with DMSO.
Detection of Antiviral Activity:
(1) First, the compound to be tested was diluted to 800 μM with cell maintenance solution (DMEM+2% FBS, Gibco, catalog numbers: 11995-065, 1600-044), and three-fold gradient dilution was performed to prepare 10 concentrations in total. The diluted compound was added to a 96-well plate with white wall and transparent bottom, 50 μl per well. To both the cell control group and the virus control group, an equal volume of the cell maintenance solution was added.
(2) EV71 virus (purchased from ATCC) was taken out from the −80° C. refrigerator and equilibrated to room temperature.
(3) The virus seed was diluted with a virus growth solution (DMEM+2% FBS, Gibco, catalog numbers: 11995-065, 1600-044) to 100TCID50, the diluted virus seed was added to the 96-well plate of (1), with […] per well. The same volume of the virus growth solution was added to the cell control group.
(4) RD cells (purchased from ATCC) were inoculated at a concentration of 1*10^5/mL into the 96-well plate of (1), with 100 μL per well, to reach a final volume of 200 μL per well. The final concentration of drug was 0.25 times the initial concentration.
(5) RD cells were cultured at 37° C. for 4 days for testing.
(6) The Buffer of CellTiter-Glo® luminescent cell viability assay reagent (Promega) was mixed with the substrate in the dark to prepare a working solution.
(7) The culture medium in the plate was discarded, the plate was dried by patting, 100 μL of the detection reagent was added to each well, and the 96-well plate was shaken on an orbital shaker for 4 minutes to induce cell lysis. After keeping in the dark and subjecting to signal stabilization for 15 minutes, the chemiluminescence unit was detected by using MD5 microplate reader (Molecular Devices), and the plate reading program was performed according to the CellTiter-Glo preset program.
The inhibition rate-concentration curve was fitted to S-curve by using origin8.0 software to calculate the IC50 value of the compound to be tested.
(§1) The formula for calculating the inhibition rates of drug at different dilution degrees was as follows: inhibition rate (%)=(average value of cell control group−value of experimental group)/(average value of cell control group−minimum value of experimental group)*100
(§2) The inhibition rate-concentration curve was fitted to S-curve by using origin8.0 software, and the IC50 value of the compound to be tested was calculated. The same method was used to calculate the TD50 value, and the selection index SI=TD50/IC50 was calculated according to the half maximal inhibitory concentration IC50 and the median toxic dose TD50.

The next series relates to RD cells. Nature of the series: Detection of cytotoxicity in RD cells (CellTiter-Glo). The format is cell-based. The conditions noted are these: 4 days, CellTiter-Glo, median toxic dose. The method, then:
Detection of Cytotoxicity:
(1) The compound to be tested was diluted to a concentration of 400 μM with the cell maintenance solution, and 3-fold gradient dilution was carried out to obtain 10 concentrations in total.
(2) The diluted compound was added to a 96-well plate with white wall and transparent bottom, with 100 μL per well. An equal volume of the cell maintenance solution was added to the cell control group.
(3) RD cells were inoculated into the above 96-well plate at a concentration of 1*10^5/mL, with 100 μL per well, to reach a final volume of 200 μL per well, and the final concentration of drug was 0.5 times the pretreatment concentration.
(4) The RD cells were cultured at 37° C. for 4 days for testing.
(5) The Buffer of CellTiter-Glo® luminescent cell viability assay reagent was mixed with the substrate in the dark to prepare a working solution.
(6) The culture medium in the plate was discarded, the plate was dried by patting, 100 μL of the detection reagent was added to each well, and the 96-well plate was shaken on an orbital shaker for 4 minutes to induce cell lysis. After keeping in the dark and subjecting to signal stabilization for 15 minutes, the chemiluminescence unit was detected, and the plate reading program was performed according to the CellTiter-Glo preset program.
as §1, §2
For orientation: In ATP-based viability assays light output follows the ATP content of the culture.

As to `CC(=O)/C=C/c1cnc2ccc(-c3ccc(C(C)C)cc3)cc2c1Nc1cccc(C(F)(F)F)c1` [HTL-3-39, (E)-6-(4-isopropyl)phenyl-4-[3-(trifluoromethyl)phenyl]aminoquinoline-3-butenone], the melting point was 143 to 144 °C. Also, in series [1], the half-inhibitory concentration (IC50) is over 200 µM. Moreover, the TD50 in the series on RD cells was 1.75 ± 0.73 µM.
In turn, `CCCc1ccc(-c2ccc3ncc(/C=C/C(C)=O)c(Nc4cccc(C(F)(F)F)c4)c3c2)cc1` [HTL-3-40, (E)-6-(4-propyl)phenyl-4-[3-(trifluoromethyl)phenyl]aminoquinoline-3-butenone] returned a melting point of 166 to 169 °C. Further, the IC50 in series [1] is over 200 µM. In the series with RD cells, the TD50 is 0.83 ± 0.03 µM.
`CC(=O)/C=C/c1cnc2ccc(-c3ccc(CC(C)C)cc3)cc2c1Nc1cccc(C(F)(F)F)c1` [HTL-3-41, (E)-6-(4-isobutyl)phenyl-4-[3-(trifluoromethyl)phenyl]aminoquinoline-3-butenone] registered a melting point of 187 to 191 °C. For the same compound, in series [1], the IC50 was over 200 µM. The TD50 in the series on RD cells amounted to 0.99 ± 0.24 µM.
As for `CCCCc1ccc(-c2ccc3ncc(/C=C/C(C)=O)c(Nc4cccc(C(F)(F)F)c4)c3c2)cc1` [HTL-3-42, (E)-6-(4-butyl)phenyl-4-[3-(trifluoromethyl)phenyl]aminoquinoline-3-butenone], the melting point was in the range of 149 to 150 °C. Moreover, in series [1], the IC50 was over 200 µM. The compound also registered a TD50 in the series with RD cells of 0.96 ± 0.15 µM.
As for `CC(=O)/C=C/c1cnc2ccc(-c3ccc(F)nc3)cc2c1Nc1cccc(C(F)(F)F)c1` [HTL-3-43, (E)-6-[3-(6-fluoro)pyridyl]-4-[3-(trifluoromethyl)phenyl]aminoquinoline-3-butenone], the melting point was 133 to 134 °C. Also, the concentration for half-maximal inhibition (IC50) in series [1] is over 200 µM. The compound also gave a TD50 in the series with RD cells of 2.23 ± 0.08 µM.
For `CC(=O)/C=C/c1cnc2ccc(-c3ccc(C(N)=O)cc3)cc2c1Nc1cccc(C(F)(F)F)c1` [HTL-3-45, (E)-6-(4-carbamoyl)phenyl-4-[3-(trifluoromethyl)phenyl]aminoquinoline-3-butenone] the same measures were 211 to 214 °C, over 200 µM and 2.42 ± 0.06 µM.
For `CC(=O)/C=C/c1cnc2ccc(-c3cncc(C#N)c3)cc2c1Nc1cccc(C(F)(F)F)c1` [HTL-3-46, (E)-6-[3-(5-cyano)pyridyl]-4-[3-(trifluoromethyl)phenyl]aminoquinoline-3-butenone] the same measures were 227 to 229 °C, over 200 µM and 3.59 ± 2.46 µM.
`Nc1ccc(-c2ccc3ncc4oc(=O)n(-c5cccc(C(F)(F)F)c5)c4c3c2)cn1` [HTL-4-32, 8-[3-(6-amino)pyridyl]-1-[3-(trifluoromethyl)phenyl]oxazolo[5,4-c]quinolin-2(1H)-one] showed a melting point of 146 to 147 °C. In series [1] (EV71, RD cells), the “in vitro anti-EV71 activity, in words” value is “moderate inhibitory activity”. For the same compound, in series [1], the IC50 was 5.57 ± 1.53 µM. Moreover, the TD50 in the series on RD cells is 14.5 ± 6.4 µM.
As for `O=c1oc2cnc3ccc(-c4ccoc4)cc3c2n1-c1cccc(C(F)(F)F)c1` [HTL-5-25, 8-(3-furyl)-1-[3-(trifluoromethyl)phenyl]oxazolo[5,4-c]quinolin-2(1H)-one], the melting point was 276 to 277 °C. For the same compound, the IC50 in series [1] is over 200 µM. Also, the TD50 in the series on RD cells is over 200 µM.
For `O=c1oc2cnc3ccc(-c4cccs4)cc3c2n1-c1cccc(C(F)(F)F)c1` [HTL-5-26, 8-(2-thienyl)-1-[3-(trifluoromethyl)phenyl]oxazolo[5,4-c]quinolin-2(1H)-one] the same measures were 272 to 274 °C, over 200 µM and over 200 µM.
`CCOc1ccc(-c2ccc3ncc4oc(=O)n(-c5cccc(C(F)(F)F)c5)c4c3c2)cc1` [HTL-5-27, 8-(4-ethoxy)phenyl-1-[3-(trifluoromethyl)phenyl]oxazolo[5,4-c]quinolin-2(1H)-one] yielded a melting point of 254 °C. The IC50 in series [1] is over 200 µM. In the series on RD cells, this compound showed a TD50 of over 200 µM.
For `O=c1oc2cnc3ccc(-c4ccc(F)nc4)cc3c2n1-c1cccc(C(F)(F)F)c1` [HTL-5-28, 8-[3-(6-fluoro)pyridyl]-1-[3-(trifluoromethyl)phenyl]oxazolo[5,4-c]quinolin-2(1H)-one] the same measures were 262 to 263 °C, over 200 µM and over 200 µM.
For `O=c1oc2cnc3ccc(-c4ccc(C(F)(F)F)cc4)cc3c2n1-c1cccc(C(F)(F)F)c1` [HTL-5-29, 8-(4-trifluoromethyl)phenyl-1-[3-(trifluoromethyl)phenyl]oxazolo[5,4-c]quinolin-2(1H)-one] the same measures were 265 to 266 °C, over 200 µM and over 200 µM.
For `COc1cncc(-c2ccc3ncc4oc(=O)n(-c5cccc(C(F)(F)F)c5)c4c3c2)c1` [HTL-5-30, 8-[3-(5-methoxy)pyridyl]-1-[3-(trifluoromethyl)phenyl]oxazolo[5,4-c]quinolin-2(1H)-one] the same measures were 257 to 258 °C, over 200 µM and 68.52 ± 0.42 µM.
For `O=c1oc2cnc3ccc(-c4cnc5ccccc5c4)cc3c2n1-c1cccc(C(F)(F)F)c1` [HTL-5-32, 8-(3-quinolyl)-1-[3-(trifluoromethyl)phenyl]oxazolo[5,4-c]quinolin-2(1H)-one], the melting point is 242 to 244 °C. Also, the IC50 in series [1] is over 200 µM. The compound further displayed a TD50 with RD cells of 68.88 ± 0.13 µM.
`O=c1oc2cnc3ccc(-c4ccc(Cl)cc4)cc3c2n1-c1cccc(C(F)(F)F)c1` [HTL-5-33, 8-(4-chloro)phenyl-1-[3-(trifluoromethyl)phenyl]oxazolo[5,4-c]quinolin-2(1H)-one] gave a melting point of 283 to 286 °C. Also, in series [1], the IC50 was over 200 µM. In the series with RD cells, this compound came in with a TD50 of over 200 µM.
The corresponding values for `CCCc1ccc(-c2ccc3ncc4oc(=O)n(-c5cccc(C(F)(F)F)c5)c4c3c2)cc1` [HTL-5-34, 8-(4-propyl)phenyl-1-[3-(trifluoromethyl)phenyl]oxazolo[5,4-c]quinolin-2(1H)-one] are 220 to 221 °C, over 200 µM and over 200 µM.
As to `CC(C)c1ccc(-c2ccc3ncc4oc(=O)n(-c5cccc(C(F)(F)F)c5)c4c3c2)cc1` [HTL-5-35, 8-(4-isopropyl)phenyl-1-[3-(trifluoromethyl)phenyl]oxazolo[5,4-c]quinolin-2(1H)-one], the melting point lay in the range of 219 to 220 °C. Also, the 50% inhibitory concentration (IC50) in series [1] is over 200 µM. Besides, the TD50 in the series with RD cells came to 69.36 ± 0.28 µM.
The corresponding values for `N#Cc1cncc(-c2ccc3ncc4oc(=O)n(-c5cccc(C(F)(F)F)c5)c4c3c2)c1` [HTL-5-36, 8-[3-(5-cyano)pyridyl]-1-[3-(trifluoromethyl)phenyl]oxazolo[5,4-c]quinolin-2(1H)-one] are 262 to 263 °C, over 200 µM and 13.41 ± 0.18 µM.
The corresponding values for `Cc1ccc(Nc2ccc3ncc4ccc(=O)n(-c5cccc(C(F)(F)F)c5)c4c3c2)cc1C` [HTL-6-17, 9-(3,4-dimethylphenyl)imino-2-oxo-1-[3-(trifluoromethyl)phenyl]-1,2-dihydrobenzo[h][1,6]naphthyridine] are 140 to 141 °C, over 200 µM and 6.81 ± 1.03 µM.
